# Tested on: human colon tumour cell line HT29
# Test: Cellular Assay (phosphohistone H3 Ser10 mitotic marker, HT29)
# Type: cell-based
# Conditions: HT-29, 24 h, HT29 cells, read-out: IC50 (cellular assay, phosphohistone H3)
row,SMILES,IC50
1,"COc1cc(C(=O)NC2CCC(N(C)C)CC2)c(Cl)cc1Nc1ncc2c(n1)N(C1CCCC1)CCC(=O)N2C (centres unmarked) [Example 338, 2-chloro-4-[(2-cyclopentyl-6-methyl-5-oxo-2,6,9,11-tetrazabicyclo[5.4.0]undeca-7,9,11-trien-10-yl)amino]-N-(4-dimethylaminocyclohexyl)-5-methoxy-benzamide]",< 300 nM
2,"CCN1CCC(NC(=O)c2ccc(Nc3ncc4c(n3)N(C3CCCC3)CC(C)(C)C(=O)N4C)c(OC)c2)CC1 [Example 350, 4-[(2-cyclopentyl-4,4,6-trimethyl-5-oxo-2,6,9,11-tetrazabicyclo[5.4.0]undeca-7,9,11-trien-10-yl)amino]-N-(1-ethyl-4-piperidyl)-3-methoxy-benzamide]",< 300 nM
3,"COc1cc(C(=O)NC2CCC(N(C)C)CC2)ccc1Nc1ncc2c(n1)N(C1CCCC1)CC(C)(C)C(=O)N2C (centres unmarked) [Example 363, 4-[(2-cyclopentyl-4,4,6-trimethyl-5-oxo-2,6,9,11-tetrazabicyclo[5.4.0]undeca-7,9,11-trien-10-yl)amino]-N-(4-dimethylaminocyclohexyl)-3-methoxy-benzamide]",< 300 nM
4,"CN1CCC(NC(=O)c2cc(Cl)c(Nc3ncc4c(n3)N(C3CCCC3)CCC(=O)N4C)c(Cl)c2F)CC1 [Example 330, 3,5-dichloro-4-[(2-cyclopentyl-6-methyl-5-oxo-2,6,9,11-tetrazabicyclo[5.4.0]undeca-7,9,11-trien-10-yl)amino]-2-fluoro-N-(1-methyl-4-piperidyl)benzamide]",< 1000 nM
5,"CN(C)CCCNC(=O)c1ccc(Nc2ncc3c(n2)N(C2CCCC2)CC(C)(C)C(=O)N3C)c(Cl)c1 [Example 362, 3-chloro-4-[(2-cyclopentyl-4,4,6-trimethyl-5-oxo-2,6,9,11-tetrazabicyclo[5.4.0]undeca-7,9,11-trien-10-yl)amino]-N-(3-dimethylaminopropyl)benzamide]",< 300 nM
6,"CCC1(CC)CN(C2CCCC2)c2nc(Nc3ccc(C(=O)NCC(C)(C)CN4CCCC4)cc3OC)ncc2N(C)C1=O [Example 376, 4-[(2-cyclopentyl-4,4-diethyl-6-methyl-5-oxo-2,6,9,11-tetrazabicyclo[5.4.0]undeca-7,9,11-trien-10-yl)amino]-N-(2,2-dimethyl-3-pyrrolidin-1-yl-propyl)-3-methoxy-benzamide]",< 300 nM
7,"COc1cc(C(=O)N[C@@H]2CCN(C)C2)c(Cl)cc1Nc1ncc2c(n1)N(C1CCCC1)CCC(=O)N2C [Example 336, 2-chloro-4-[(2-cyclopentyl-6-methyl-5-oxo-2,6,9,11-tetrazabicyclo[5.4.0]undeca-7,9,11-trien-10-yl)amino]-5-methoxy-N-[(3R)-1-methylpyrrolidin-3-yl]benzamide]",< 300 nM
8,"COc1cc(C(=O)NCC(C)(C)CN2CCCC2)ccc1Nc1ncc2c(n1)N(C1CCCC1)CC(C)(C)C(=O)N2C [Example 368, 4-[(2-cyclopentyl-4,4,6-trimethyl-5-oxo-2,6,9,11-tetrazabicyclo[5.4.0]undeca-7,9,11-trien-10-yl)amino]-N-(2,2-dimethyl-3-pyrrolidin-1-yl-propyl)-3-methoxy-benzamide]",< 300 nM
9,"CN1CCC(NC(=O)c2ccc(Nc3ncc4c(n3)N(C3CCCC3)CCC(=O)N4C)c3c2OCO3)CC1 [Example 341, 7-[(2-cyclopentyl-6-methyl-5-oxo-2,6,9,11-tetrazabicyclo[5.4.0]undeca-7,9,11-trien-10-yl)amino]-N-(1-methyl-4-piperidyl)benzo[1,3]dioxole-4-carboxamide]",< 300 nM
10,"CN1CC[C@@H](NC(=O)c2cc(F)c(Nc3ncc4c(n3)N(C3CCCC3)CCC(=O)N4C)cc2F)C1 [Example 334, 4-[(2-cyclopentyl-6-methyl-5-oxo-2,6,9,11-tetrazabicyclo[5.4.0]undeca-7,9,11-trien-10-yl)amino]-2,5-difluoro-N-[(3R)-1-methylpyrrolidin-3-yl]benzamide]",< 300 nM
11,"COc1cc(C(=O)NCCN(C)C)ccc1Nc1ncc2c(n1)N(C(C)C)CC(C)(C)C(=O)N2C [Example 302, N-(2-dimethylaminoethyl)-3-methoxy-4-[(4,4,6-trimethyl-5-oxo-2-propan-2-yl-2,6,9,11-tetrazabicyclo[5.4.0]undeca-7,9,11-trien-10-yl)amino]benzamide]",< 1000 nM
12,"CC(C)N1CC(C)(C)C(=O)N(C)c2cnc(Nc3cc(F)c(C(=O)NC4CCC(N(C)C)CC4)cc3Cl)nc21 (centres unmarked) [Example 291, 5-chloro-N-(4-dimethylaminocyclohexyl)-2-fluoro-4-[(4,4,6-trimethyl-5-oxo-2-propan-2-yl-2,6,9,11-tetrazabicyclo[5.4.0]undeca-7,9,11-trien-10-yl)amino]benzamide]",< 300 nM
13,"COc1cc(C(=O)NCCCN(C)C)ccc1Nc1ncc2c(n1)N(C(C)C)CC(C)(C)C(=O)N2C [Example 303, N-(3-dimethylaminopropyl)-3-methoxy-4-[(4,4,6-trimethyl-5-oxo-2-propan-2-yl-2,6,9,11-tetrazabicyclo[5.4.0]undeca-7,9,11-trien-10-yl)amino]benzamide]",< 300 nM
14,"COc1cc(C(=O)N[C@@H]2CCN(C)C2)c(F)cc1Nc1ncc2c(n1)N(C(C)C)CC(C)(C)C(=O)N2C [Example 292, 2-fluoro-5-methoxy-N-[(3R)-1-methylpyrrolidin-3-yl]-4-[(4,4,6-trimethyl-5-oxo-2-propan-2-yl-2,6,9,11-tetrazabicyclo[5.4.0]undeca-7,9,11-trien-10-yl)amino]benzamide]",< 300 nM
15,"CCC1(CC)CN(C(C)C)c2nc(Nc3ccc(C(=O)NCC(C)(C)CN4CCCC4)cc3OC)ncc2N(C)C1=O [Example 309, 4-[(4,4-diethyl-6-methyl-5-oxo-2-propan-2-yl-2,6,9,11-tetrazabicyclo[5.4.0]undeca-7,9,11-trien-10-yl)amino]-N-(2,2-dimethyl-3-pyrrolidin-1-yl-propyl)-3-methoxy-benzamide]",< 1000 nM

# Results, then the compound that gave them:
row,IC50,SMILES
1,< 1000 nM,"COc1cc(C(=O)NCC2(CN3CCCC3)CC2)c(F)cc1Nc1ncc2c(n1)N(C1CCCCC1)CCC(=O)N2C [Example 419, 4-[(2-cyclohexyl-6-methyl-5-oxo-2,6,9,11-tetrazabicyclo[5.4.0]undeca-7,9,11-trien-10-yl)amino]-2-fluoro-5-methoxy-N-[[1-(pyrrolidin-1-ylmethyl)cyclopropyl]methyl]benzamide]"
2,< 300 nM,"CN1CCC(NC(=O)c2cc(F)c(Nc3ncc4c(n3)N(C3CCCCC3)CCC(=O)N4C)cc2F)CC1 [Example 412, 4-[(2-cyclohexyl-6-methyl-5-oxo-2,6,9,11-tetrazabicyclo[5.4.0]undeca-7,9,11-trien-10-yl)amino]-2,5-difluoro-N-(1-methyl-4-piperidyl)benzamide]"
3,< 300 nM,"COc1cc(C(=O)NCCN2CCCC2)c(F)cc1Nc1ncc2c(n1)N(C1CCCCC1)CCC(=O)N2C [Example 425, 4-[(2-cyclohexyl-6-methyl-5-oxo-2,6,9,11-tetrazabicyclo[5.4.0]undeca-7,9,11-trien-10-yl)amino]-2-fluoro-5-methoxy-N-(2-pyrrolidin-1-ylethyl)benzamide]"
4,< 300 nM,"CN1CCC(NC(=O)c2ccc(Nc3ncc4c(n3)N(C3CCCCC3)CC3(CC3)C(=O)N4C)c(F)c2)CC1 [Example 446, 4-(9′-cyclohexyl-5′-methyl-6′-oxo-5′,6′,8′,9′-tetrahydrospiro[cyclopropane-1,7′-pyrimido[5,4-b][1,4]diazepine]-2′-ylamino)-3-fluoro-N-(1-methyl-4-piperidyl)benzamide]"
5,< 300 nM,"CN1CCC(NC(=O)c2cc(F)c(Nc3ncc4c(n3)N(C3CCCCC3)CC3(CC3)C(=O)N4C)cc2F)CC1 [Example 436, 4-(9′-cyclohexyl-5′-methyl-6′-oxo-5′,6′,8′,9′-tetrahydrospiro[cyclopropane-1,7′-pyrimido[5,4-b][1,4]diazepine]-2′-ylamino)-2,5-difluoro-N-(1-methyl-4-piperidyl)benzamide]"
6,< 300 nM,"CN1C(=O)C2(CC2)CN(C2CCCC2)c2nc(Nc3cc(F)c(C(=O)NC4CCC(N(C)C)CC4)cc3Cl)ncc21 (centres unmarked) [Example 394, 5-chloro-4-(9′-cyclopentyl-5′-methyl-6′-oxo-5′,6′,8′,9′-tetrahydrospiro[cyclopropane-1,7′-pyrimido[5,4-b][1,4]diazepine]-2′-ylamino)-N-(4-dimethylaminocyclohexyl)-2-fluoro-benzamide]"
7,< 300 nM,"CCN1CCC(NC(=O)c2cc(Cl)c(Nc3ncc4c(n3)N(C3CCCC3)CC3(CC3)C(=O)N4C)cc2F)CC1 [Example 393, 5-chloro-4-(9′-cyclopentyl-5′-methyl-6′-oxo-5′,6′,8′,9′-tetrahydrospiro[cyclopropane-1,7′-pyrimido[5,4-b][1,4]diazepine]-2′-ylamino)-N-(1-ethyl-4-piperidyl)-2-fluoro-benzamide]"
8,< 1000 nM,"CN1C(=O)CCN(C2CCCCC2)c2nc(Nc3cc(F)c(C(=O)NCC4(CN5CCCC5)CC4)cc3F)ncc21 [Example 413, 4-[(2-cyclohexyl-6-methyl-5-oxo-2,6,9,11-tetrazabicyclo[5.4.0]undeca-7,9,11-trien-10-yl)amino]-2,5-difluoro-N-[[1-(pyrrolidin-1-ylmethyl)cyclopropyl]methyl]benzamide]"
9,< 300 nM,"COc1cc(C(=O)NCC(C)(C)CN2CCCC2)ccc1Nc1ncc2c(n1)N(C1CCCCC1)CC1(CC1)C(=O)N2C [Example 440, 4-(9′-cyclohexyl-5′-methyl-6′-oxo-5′,6′,8′,9′-tetrahydrospiro[cyclopropane-1,7′-pyrimido[5,4-b][1,4]diazepine]-2′-ylamino)-N-(2,2-dimethyl-3-pyrrolidin-1-yl-propyl)-3-methoxy-benzamide]"
10,< 300 nM,"CN1CCC(NC(=O)c2cc(F)c(Nc3ncc4c(n3)N(C3CCCC3)CC3(CC3)C(=O)N4C)cc2F)CC1 [Example 396, 4-(9′-cyclopentyl-5′-methyl-6′-oxo-5′,6′,8′,9′-tetrahydrospiro[cyclopropane-1,7′-pyrimido[5,4-b][1,4]diazepine]-2′-ylamino)-2,5-difluoro-N-(1-methyl-4-piperidyl)benzamide]"
11,< 300 nM,"COc1cc(C(=O)NCCCN(C)C)ccc1Nc1ncc2c(n1)N(C1CCCCC1)CCC(=O)N2C [Example 424, 4-[(2-cyclohexyl-6-methyl-5-oxo-2,6,9,11-tetrazabicyclo[5.4.0]undeca-7,9,11-trien-10-yl)amino]-N-(3-dimethylaminopropyl)-3-methoxy-benzamide]"
